Laboratory results from patent US5589506A, “Stilbene derivative and stilbene analog derivative, and use thereof” (Morinaga Milk Industry Co., Ltd., priority 1993, dated 1996).
Read-outs that look alike come from different tables or passages of the source.

Legend:
[1] = target: T1, 5-lipoxygenase (Rattus norvegicus, UniProt P12527); assay: 5-lipoxygenase inhibition assay (rat basophilic leukemia cell RBL-1 enzyme solution); format: biochemical; details: Table 3; read-out: IC50 values of 5-lipoxygenase (mole)
T1 construct: Cultured cells were collected and washed twice; host or cells: RBL-1 rat basophilic leukemia cells (sonicate, 10,000 x g supernatant)
T1 sequence (P12527 1-673): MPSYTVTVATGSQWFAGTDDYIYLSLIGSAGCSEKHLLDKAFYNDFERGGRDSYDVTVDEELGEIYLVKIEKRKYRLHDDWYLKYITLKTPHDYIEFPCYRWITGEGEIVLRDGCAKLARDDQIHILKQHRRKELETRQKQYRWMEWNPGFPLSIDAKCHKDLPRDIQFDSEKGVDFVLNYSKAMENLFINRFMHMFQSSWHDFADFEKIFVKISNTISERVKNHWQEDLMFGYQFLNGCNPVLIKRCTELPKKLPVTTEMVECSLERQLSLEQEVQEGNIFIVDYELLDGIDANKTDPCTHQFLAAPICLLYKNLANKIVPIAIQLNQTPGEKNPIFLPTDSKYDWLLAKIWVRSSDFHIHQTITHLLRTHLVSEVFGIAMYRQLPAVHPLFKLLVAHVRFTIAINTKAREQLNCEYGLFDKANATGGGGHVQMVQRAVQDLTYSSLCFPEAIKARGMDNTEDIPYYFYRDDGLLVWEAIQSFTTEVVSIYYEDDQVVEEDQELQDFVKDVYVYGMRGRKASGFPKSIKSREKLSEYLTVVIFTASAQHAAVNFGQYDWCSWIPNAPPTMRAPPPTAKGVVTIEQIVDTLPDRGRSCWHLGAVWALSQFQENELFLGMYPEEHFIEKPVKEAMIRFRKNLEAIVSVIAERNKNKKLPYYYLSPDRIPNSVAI
Protocol: The test was carried out to examine the selectivity toward 12-lipoxgenase of the compounds of the first embodiment in the present invention.
i) Preparation of 5-lipoxgenase enzyme solution
Rat basophilic leukemia cells (RBL-1, ATCC CRL1378) were cultured in Dulbecco modified Eagle's medium containing 10% new-born bovine serum.
Cultured cells were collected and washed twice with a 50 mM Tris-buffered saline (containing 154 mM sodium chloride, pH: 7.4, hereinafter described as TBS). The cell suspension (4×10^7 cells/ml) was then sonicated and centrifuged at 10,000×g for 10 minutes.
The resultant supernatant was used to prepare an assay solution.
i) Procedure for 5-lipoxgenase inhibition assay
To an aliquot (15 μl) of the enzyme solution (40 mU/ml equivalent) was added 185 μl of TBS, 50 μl of a 2 mM adenosine triphosphate in TBS, 50 μl of a 12 mM calcium chloride in TBS, 1 μl of a 3 mM indomethacin in ethanol solution, 1 μl of an aqueous 300 mM reduced glutathione solution, and 3 μl of varied concentrated test compounds solution in ethanol. The resultant mixture was incubated at 37° C. for 5 minutes. Subsequently, 3 μl of a 2.5 mM arachidonic acid solution in ethanol was added to incubate the mixture for 2 minutes at 37° C. The reaction was ceased by the addition of 600 μl of methanol After being centrifuged at 10,000×g for 5 minutes, 5-hydroxyeicosatetraenoic acid recovered in the supernatant was separated with a reverse phase high-performance liquid chromatography equipped with a C-18 column and measured the absorption of diene at 234 nm to quantify the activity of the enzyme. […]
The enzyme activities of the compounds of the present invention prepared according to the same procedure as in Examples 54-58 to be described later and baicalein as sample substances at varied concentrations were measured according to the above-mentioned method, and mole concentrations showing 50% 12-lipoxgenase and 5-lipoxgenase inhibition ratios (hereinafter may be described as IC50 values) were obtained from the measured values of the sample substances.

[2] = target: T2, 12-lipoxygenase (Rattus norvegicus, UniProt F1LQ70); assay: 12-lipoxygenase inhibition assay (rat platelet enzyme solution); format: biochemical, Sprague Dawley male rat; details: for inhibition at 1 µM: 10^-6 (mole concentration); for inhibition at 0.1 µM: 10^-7 (mole concentration)
T2 construct: The pelleted platelets were rinsed twice with a washing buffer; from tissue; host or cells: platelets of Sprague Dawley male rat (sonicate, 100,000 x g supernatant)
T2 sequence (F1LQ70 1-663): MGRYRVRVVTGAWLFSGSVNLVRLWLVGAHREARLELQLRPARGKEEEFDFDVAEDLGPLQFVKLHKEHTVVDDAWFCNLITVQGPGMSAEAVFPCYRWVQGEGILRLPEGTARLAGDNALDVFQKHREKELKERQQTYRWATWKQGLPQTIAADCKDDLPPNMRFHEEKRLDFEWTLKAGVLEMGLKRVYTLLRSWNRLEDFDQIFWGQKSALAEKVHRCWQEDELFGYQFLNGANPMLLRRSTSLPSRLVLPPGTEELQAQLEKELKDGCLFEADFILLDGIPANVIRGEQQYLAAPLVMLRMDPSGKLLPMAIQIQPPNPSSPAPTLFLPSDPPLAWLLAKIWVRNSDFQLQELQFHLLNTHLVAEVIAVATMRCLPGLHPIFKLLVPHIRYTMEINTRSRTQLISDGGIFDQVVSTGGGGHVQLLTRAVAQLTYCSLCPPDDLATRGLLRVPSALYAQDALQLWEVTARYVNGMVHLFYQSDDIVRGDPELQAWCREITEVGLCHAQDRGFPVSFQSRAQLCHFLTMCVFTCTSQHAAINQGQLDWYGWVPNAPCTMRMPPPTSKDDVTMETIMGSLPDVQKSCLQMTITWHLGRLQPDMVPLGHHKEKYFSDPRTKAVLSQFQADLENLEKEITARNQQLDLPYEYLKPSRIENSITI
Protocol: The test was performed to examine inhibitory effect of various compounds on the 12-lipoxyganase activity.
1) Preparation of Enzyme Solution
A Sprague Dawley male rat was anesthetized with ether and bled from abdominal aorta using a syringe filled with about one-tenth volume of 3.8% sodium citrate. Blood was centrifuged at 180×g for 15 minutes at room temperature to pellet sanguineous platelet blood plasma. The resultant supernatant was again centrifuged at 1800×g for 10 minutes at 4° C. The pelleted platelets were rinsed twice with a washing buffer (50 mM Tris-hydrochloric acid buffer containing 154 mM sodium chloride and 2 mM EDTA, pH: 7.4). The platelets were then suspended in one-twentieth volume of a resuspension buffer (50 mM Tris-hydrochloric acid buffer containing 154 mM sodium chloride and 5.5 mM glucose, pH: 7.4). The platelets were then sonicated at 4° C. and centrifuged at 100,000×g for 30 minutes to obtain a supernatant as a 12-lipoxgenaseenzyme solution.
2) Procedure for 12-lipoxgenase inhibition assay
The enzyme solution described above was diluted with the resuspension buffer above mentioned to prepare an assay solution so as to include about 2 mU/ml of 12-lipoxygenase. […] The resultant mixture was incubated at 37° C. for 5 minutes. Subsequently, 3 μl of a 2.5 mM arachidonic acid solution in ethanol was added to incubate with for another 5 minutes at 37° C., then the reaction was ceased by the addition of 600 μl of methanol. After being centrifuged at 10,000×g for 5 minutes, 12-hydroxyeicosatetraenoic acid recovered in the supernatant was separated with a reverse phase high-performance liquid chromatography equipped with a […] the activity of 12 lipoxygenase.
The enzyme solution was prepared according to the same manner as in Test Example 1.
It was prepared according to the same procedure as in Test Example 1.
Measurement was performed according to the same procedure as in Test Example 1.
The measurement was performed according to the same procedure as in Test Example 1.

[3] = Table 3, read-out: IC50 values of 12-lipoxygenase (mole)
[4] = 10^-5 (mole concentration), 10 µM
[5] = 10^-5 (mole concentration), read-out: 12-Lipoxygenase inhibition ratio (%)
[6] = read-out: 12-Lipoxygenase inhibition ratio (%)
[7] = Table 2, read-out: 12-Lipoxygenase IC50 values
[8] = Table 12, deacylated compounds, read-out: 12-Lipoxygenase inhibitory effect of deacylated compounds (IC50 values)

## Cc1cccc(C=C(C#N)c2ccc(O)c(O)c2)c1 [Bz. 25, α-cyano-3'-methyl-3,4-dihydroxystilbene]
[1]
  IC50: 44 nM
[2]; [3]
  IC50: 7 nM

## N#CC(=Cc1cccc(O)c1)c1ccc(Cl)cc1 [Comp. Ex. 1, reference compound]
[2]; [4]
  12-Lipoxygenase inhibition ratio (%): 7%
[2]; [5]
  inhibition at 10 µM: < 10%
[2]; [6]
  inhibition at 1 µM: 1%
  inhibition at 0.1 µM: 0%

## N#CC(=Cc1ccc(O)cc1)c1ccc(Cl)cc1 [Comp. Ex. 2, reference compound]
[2]; [4]
  12-Lipoxygenase inhibition ratio (%): 10%
[2]; [5]
  inhibition at 10 µM: < 10%
[2]; [6]
  inhibition at 1 µM: 2%
  inhibition at 0.1 µM: 5%

## COc1ccc(C=C(C#N)c2ccc(Cl)cc2)cc1O [Comp. Ex. 3, reference compound]
[2]; [4]
  12-Lipoxygenase inhibition ratio (%): 10%
[2]; [5]
  inhibition at 10 µM: < 10%
[2]; [6]
  inhibition at 1 µM: 1%
  inhibition at 0.1 µM: 0%

## COc1cc(C=C(C#N)c2ccc(Cl)cc2)ccc1O [Comp. Ex. 4, reference compound]
[2]; [4]
  12-Lipoxygenase inhibition ratio (%): 2%
[2]; [6]
  inhibition at 1 µM: 0%
  inhibition at 0.1 µM: 0%

## Oc1ccc(/C=C/c2ccccc2)cc1O [Comp. Ex. 5, reference compound]
[2]
  12-lipoxygenase inhibitory effect (in words): remarkably poor compared with that of the compound (Example 1)
[2]; [7]
  IC50: 1200 nM

## CCOC(=O)C(=Cc1ccc(O)c(O)c1)c1ccccc1 [Comp. Ex. 6, reference compound]
[2]
  12-lipoxygenase inhibitory effect (in words): remarkably poor compared with that of the compound (Example 1)
[2]; [7]
  IC50: 160 nM

## N#CC(=Cc1ccc(O)c(O)c1)c1ccc(O)cc1 [Comp. Ex. 7, reference compound]
[2]; [7]
  IC50: 230 nM

## N#CC(=Cc1ccc(O)c(O)c1)c1ccc(O)c(O)c1 [Comp. Ex. 8, reference compound]
[2]; [7]
  IC50: 300 nM

## N#CC(=Cc1ccc(C(=O)O)cc1)c1ccc(O)c(O)c1 [Comp. Ex. 9, reference compound]
[2]; [7]
  IC50: 5000 nM

## N#CC(=Cc1ccc(O)c(O)c1)c1ccc(Cl)cc1 [Ex. 1, α-cyano-4-chloro-3',4'-dihydroxystilbene]
[1]
  IC50: 38 nM
[2]; [5]
  inhibition at 10 µM: 97%
[2]; [6]
  inhibition at 1 µM: 97%
  inhibition at 0.1 µM: 98%
[2]; 10^-8 (mole concentration), 0.01 µM
  12-Lipoxygenase inhibition ratio (%): 73%
[2]; 10^-8 (mole concentration), 0.01 µM, listed as Example 1, 0.01 µM
  12-Lipoxygenase inhibition ratio (%): 73%
[2]; 10^-9 (mole concentration), read-out: 12-Lipoxygenase inhibition ratio (%)
  inhibition at 0.001 µM: 1%
[2]; [7]
  IC50: 4.2 nM
[2]; [3]
  IC50: 4.2 nM
[2]; [8]
  IC50: 4.2 nM

## N#CC(=Cc1ccc(Cl)cc1)c1ccc(O)c(O)c1 [Ex. 2, α-cyano-4'-chloro-3,4-dihydroxystilbene]
[1]
  IC50: 56 nM
[2]; [3]
  IC50: 1.8 nM
[2]; [8]
  IC50: 1.8 nM

## N#CC(=Cc1ccc(O)c(O)c1)c1ccc(F)cc1 [Ex. 3]
[1]
  IC50: 94 nM
[2]; [3]
  IC50: 4.8 nM

## N#CC(=Cc1ccc(O)c(O)c1)c1ccc(Br)cc1 [Ex. 4]
[1]
  IC50: 15 nM
[2]; [3]
  IC50: 3.6 nM

## N#CC(=Cc1ccc(O)c(O)c1)c1ccc(I)cc1 [Ex. 5, α-cyano-4-iodo-3',4'-dihydroxystilbene]
[1]
  IC50: 20 nM
[2]; [3]
  IC50: 5.4 nM
[2]; [8]
  IC50: 5.4 nM

## Cc1ccc(C(C#N)=Cc2ccc(O)c(O)c2)cc1 [Ex. 6]
[1]
  IC50: 48 nM
[2]; [3]
  IC50: 4.5 nM

## N#CC(=Cc1ccc(O)c(O)c1)c1ccccc1 [Ex. 9]
[1]
  IC50: 110 nM
[2]; [3]
  IC50: 15 nM

## CCc1ccc(C(C#N)=Cc2ccc(O)c(O)c2)cc1 [Ex. 11]
[1]
  IC50: 46 nM
[2]; [3]
  IC50: 5.8 nM

## N#CC(=Cc1ccc(O)c(O)c1)c1cc(Br)cs1 [Ex. 13, α-(3,4-dihydroxybenzylidene)-4-bromothiophene-2-acetonitrile]
[1]
  IC50: 36 nM
[2]; [3]
  IC50: 3 nM
[2]; [8]
  IC50: 3 nM

## N#CC(=Cc1ccc(O)c(O)c1)c1ccc(Br)s1 [Ex. 14]
[1]
  IC50: 26 nM
[2]; [3]
  IC50: 3.6 nM

## N#CC(=Cc1cc(O)c(O)c(O)c1)c1ccc(Cl)cc1 [Ex. 15, α-cyano-4-chloro-3',4',5'-trihydroxystilbene]
[1]
  IC50: 56 nM
[2]; [3]
  IC50: 14 nM

## N#CC(=Cc1ccc(O)c(O)c1)c1ccc(C#N)cc1 [Ex. 16]
[1]
  IC50: 100 nM
[2]; [3]
  IC50: 28 nM

## N#CC(=Cc1ccc(O)c(O)c1)c1ccc([N+](=O)[O-])cc1 [Ex. 17, α-cyano-4-nitro-3',4'-dihydroxystilbene]
[1]
  IC50: 130 nM
[2]; [3]
  IC50: 8.8 nM
[2]; [8]
  IC50: 8.8 nM

## N#CC(=Cc1ccccc1)c1ccc(O)c(O)c1 [Ex. 20, α-cyano-3,4-dihydroxystilbene]
[1]
  IC50: 96 nM
[2]; [3]
  IC50: 17 nM

## N#CC(=Cc1ccc(F)cc1)c1ccc(O)c(O)c1 [Ex. 21, α-cyano-4'-fluoro-3,4-dihydroxystilbene]
[1]
  IC50: 74 nM
[2]; [3]
  IC50: 4.8 nM
[2]; [8]
  IC50: 4.8 nM

## N#CC(=Cc1cccc(Cl)c1)c1ccc(O)c(O)c1 [Ex. 22, α-cyano-3'-chloro-3,4-dihydroxystilbene]
[1]
  IC50: 34 nM
[2]; [3]
  IC50: 5.1 nM
[2]; [8]
  IC50: 5.1 nM

## COc1ccc(C(C#N)=Cc2ccc(O)c(O)c2)cc1 [Formula 55b, α-cyano-4-methoxy-3',4'-dihydroxystilbene]
[2]; [8]
  IC50: 6 nM
